What was measured:
[1] = tested on: Mus musculus; assay: Inhibition of PDGFRbeta phosphorylation in C6 cells xenografted in nude mouse lungs at 3 to 50 mg/kg bid after 10 hrs by Western blot analysis; conditions: dose mg/kg 3-50
[2] = tested on: C6; assay: Antitumor activity against rat C6 cells xenografted in nude mouse assessed as tumor growth inhibition at 12.5 to 50 mg/kg bid for 22 days; format: functional; conditions: dose mg/kg 12.5-50
[3] = Half life in dog at 2 mg/kg, po; format: ADME, organism-based, Canis lupus familiaris; design: dose 2 mg/kg, route oral; conditions: in vivo
[4] = tested on: Mus musculus; assay: Inhibition of VEGFR2 phosphorylation in C6 cells xenografted in nude mouse lungs at 3 to 50 mg/kg bid after 10 hrs by Western blot analysis; format: functional; conditions: dose mg/kg 3-50
[5] = Fraction unbound in dog serum; format: ADME, cell-free, Canis lupus familiaris
[6] = Oral bioavailability in rat at 2 to 5 mg/kg; format: ADME, organism-based; conditions: in vivo
[7] = tested on: LoVo; assay: Antitumor activity against human LoVo cells xenografted in nude mouse assessed as tumor growth inhibition at 50 mg/kg bid for 22 days; format: functional; conditions: 528 h, read-out: TGI
[8] = Clearance in rat at 2 mg/kg; format: ADME, organism-based; design: dose 2 mg/kg; conditions: in vivo
[9] = Clearance in rat hepatocytes assessed per million cells; format: ADME, cell-based, Hepatocyte; conditions: read-out: CLH
[10] = Half life in rat at 2 mg/kg, po; format: ADME, organism-based; design: dose 2 mg/kg, route oral; conditions: in vivo
[11] = Clearance in dog at 2 mg/kg; format: ADME, organism-based, Canis lupus familiaris; design: dose 2 mg/kg; conditions: in vivo
[12] = Volume of distribution at steady state in dog at 2 mg/kg; format: ADME, organism-based, Canis lupus familiaris; design: dose 2 mg/kg; conditions: in vivo, read-out: Vdss
[13] = tested on: Canis familiaris; assay: Hepatic blood flow in dog at 0.5 to 2 mg/kg; format: ADME, organism-based, Canis lupus familiaris, Liver; design: dose 0.5-2 mg/kg; conditions: in vivo
[14] = tested on: Calu-6; assay: Antitumor activity against human Calu6 cells xenografted in nude mouse assessed as tumor growth inhibition at 50 mg/kg bid; format: functional; conditions: read-out: TGI
[15] = Terminal half life in dog at 2 mg/kg, iv; format: ADME, organism-based, Canis lupus familiaris; design: dose 2 mg/kg, route intravenous; conditions: in vivo, read-out: beta t1/2 (converted)
[16] = tested on: Rattus norvegicus; assay: Hepatic blood flow in rat at 0.5 to 2 mg/kg; format: ADME, organism-based, Liver; design: dose 0.5-2 mg/kg; conditions: in vivo
[17] = Volume of distribution at steady state in rat at 2 mg/kg; format: ADME, organism-based; design: dose 2 mg/kg; conditions: in vivo, read-out: Vdss
[18] = target: Voltage-gated inwardly rectifying potassium channel KCNH2 (Homo sapiens, UniProt Q12809); assay: Inhibition of human ERG
Sequence of Voltage-gated inwardly rectifying potassium channel KCNH2 (Q12809 whole entry): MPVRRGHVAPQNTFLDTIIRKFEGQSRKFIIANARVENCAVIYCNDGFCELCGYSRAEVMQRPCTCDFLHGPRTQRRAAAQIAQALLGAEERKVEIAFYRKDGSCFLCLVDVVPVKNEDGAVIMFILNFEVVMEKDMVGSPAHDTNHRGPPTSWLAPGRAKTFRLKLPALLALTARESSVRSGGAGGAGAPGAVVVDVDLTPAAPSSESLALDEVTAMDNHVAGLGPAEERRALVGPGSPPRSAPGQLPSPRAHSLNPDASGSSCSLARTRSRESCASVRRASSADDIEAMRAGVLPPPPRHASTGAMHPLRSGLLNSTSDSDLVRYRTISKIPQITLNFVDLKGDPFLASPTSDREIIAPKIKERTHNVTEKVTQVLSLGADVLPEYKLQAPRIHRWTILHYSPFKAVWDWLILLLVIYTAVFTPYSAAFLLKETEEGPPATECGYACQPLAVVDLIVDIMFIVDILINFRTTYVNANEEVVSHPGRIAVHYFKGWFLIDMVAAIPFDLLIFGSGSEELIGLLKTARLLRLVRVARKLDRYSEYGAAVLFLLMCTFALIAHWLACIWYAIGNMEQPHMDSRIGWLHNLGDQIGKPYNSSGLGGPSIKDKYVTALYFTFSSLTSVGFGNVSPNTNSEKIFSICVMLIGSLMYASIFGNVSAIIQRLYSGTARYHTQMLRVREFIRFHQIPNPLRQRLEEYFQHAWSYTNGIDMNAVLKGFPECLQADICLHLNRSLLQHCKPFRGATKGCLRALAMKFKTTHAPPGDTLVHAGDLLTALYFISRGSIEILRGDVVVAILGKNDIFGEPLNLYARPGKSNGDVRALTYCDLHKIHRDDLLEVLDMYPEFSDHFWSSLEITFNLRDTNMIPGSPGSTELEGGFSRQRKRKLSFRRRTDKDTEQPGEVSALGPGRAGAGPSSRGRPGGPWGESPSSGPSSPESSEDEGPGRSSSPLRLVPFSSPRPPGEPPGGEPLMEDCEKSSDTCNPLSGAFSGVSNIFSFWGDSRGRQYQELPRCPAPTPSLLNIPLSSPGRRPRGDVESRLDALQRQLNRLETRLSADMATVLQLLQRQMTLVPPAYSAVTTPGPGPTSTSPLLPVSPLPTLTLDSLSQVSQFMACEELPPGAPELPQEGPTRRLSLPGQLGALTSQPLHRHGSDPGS

[19] = Oral bioavailability in dog at 2 to 5 mg/kg; format: ADME, organism-based, Canis lupus familiaris; conditions: in vivo
[20] = target: Cytochrome P450 2C9 (Homo sapiens, UniProt P11712); assay: Inhibition of CYP2C9; format: ADME
Sequence of Cytochrome P450 2C9 (P11712 whole entry): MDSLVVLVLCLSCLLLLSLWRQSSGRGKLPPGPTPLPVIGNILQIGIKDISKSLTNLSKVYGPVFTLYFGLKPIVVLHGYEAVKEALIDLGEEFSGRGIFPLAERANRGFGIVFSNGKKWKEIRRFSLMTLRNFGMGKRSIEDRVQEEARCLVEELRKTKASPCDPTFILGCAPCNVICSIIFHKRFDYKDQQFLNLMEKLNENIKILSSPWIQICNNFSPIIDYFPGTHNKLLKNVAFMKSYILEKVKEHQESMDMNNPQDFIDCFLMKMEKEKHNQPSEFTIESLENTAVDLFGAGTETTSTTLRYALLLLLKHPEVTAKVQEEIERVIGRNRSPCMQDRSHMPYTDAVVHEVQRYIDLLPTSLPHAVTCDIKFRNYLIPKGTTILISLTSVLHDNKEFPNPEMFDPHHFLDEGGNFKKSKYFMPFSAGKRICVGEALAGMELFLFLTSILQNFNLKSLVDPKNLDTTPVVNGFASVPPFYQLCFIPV

[21] = tested on: Calu-6; assay: Antitumor activity against human Calu6 cells xenografted in nude mouse assessed as tumor growth inhibition at 12.5 mg/kg bid; format: functional; conditions: read-out: TGI
[22] = Fraction unbound in human serum; format: ADME, cell-free
[23] = Terminal half life in rat at 2 mg/kg, iv; format: ADME, organism-based; design: dose 2 mg/kg, route intravenous; conditions: in vivo, read-out: beta t1/2 (converted)
[24] = Half life in dog at 2.7 mg/kg, po; format: ADME, organism-based, Canis lupus familiaris; design: dose 2.7 mg/kg, route oral; conditions: in vivo
[25] = Clearance in dog at 3 mg/kg, iv; format: ADME, organism-based, Canis lupus familiaris; design: dose 3 mg/kg, route intravenous; conditions: in vivo
[26] = Clearance in dog at 10 mg/kg, po; format: ADME, organism-based, Canis lupus familiaris; design: dose 10 mg/kg, route oral; conditions: in vivo
[27] = Oral bioavailability in dog at 10 mg/kg; format: ADME, organism-based, Canis lupus familiaris; conditions: in vivo
[28] = Terminal half life in dog at 3 mg/kg, iv; format: ADME, organism-based, Canis lupus familiaris; design: dose 3 mg/kg, route intravenous; conditions: in vivo, read-out: beta t1/2 (converted)
[29] = Half life in dog at 3 mg/kg, po; format: ADME, organism-based, Canis lupus familiaris; design: dose 3 mg/kg, route oral; conditions: in vivo
[30] = Oral bioavailability in rat at 2.7 mg/kg; format: ADME, organism-based; conditions: in vivo
[31] = Volume of distribution at steady state in dog at 3 mg/kg, iv; format: ADME, organism-based, Canis lupus familiaris; design: dose 3 mg/kg, route intravenous; conditions: in vivo, read-out: Vdss

COc1cc2ncnc(Oc3ccc(CC(=O)Nc4cnn(C(C)C)c4)cc3)c2cc1OC
inhibition (INH) [1]: 60% | TGI [2]: 64% | half-life [3]: 6.8 h | inhibition (INH) [4]: 60% | fraction unbound [5]: 0.07 | bioavailability [6]: 34% | inhibition in vivo at 50 mg/kg [7]: 67% | clearance [8]: 8.9 mL/min/kg | hepatocyte CLint [9]: 3.5 µL/min/1e6 cells | half-life [10]: 6 h | clearance [11]: 3.3 mL/min/kg | Vd [12]: 0.9 L/kg | QH [13]: 9% | inhibition in vivo at 50 mg/kg [14]: 81% | half-life [15]: 4.2 h | QH [16]: 6% | Vd [17]: 0.8 L/kg | IC50 [18]: 137 µM | bioavailability [19]: 23% | IC50 [20]: 8 µM | inhibition in vivo at 12.5 mg/kg [21]: 72% | fraction unbound [22]: 0.033 | half-life [23]: 1.3 h

COc1cc2ncnc(Oc3ccc(CC(=O)Nc4cnn(C(C)C)c4)cc3)c2cc1OC.O=P(O)(O)O
half-life [24]: 4.3 h | clearance [25]: 1.7 mL/min/kg | CL/F [26]: 5.2 mL/min/kg | bioavailability [27]: > 90% | half-life [28]: 4.7 h | half-life [29]: 6.8 h | bioavailability [30]: > 90% | Vd [31]: 0.7 L/kg

Reference: ChEMBL document CHEMBL1938371, “Discovery of AZD2932, a new Quinazoline Ether Inhibitor with high affinity for VEGFR-2 and PDGFR tyrosine kinases” (Bioorg Med Chem Lett, 2012)
